Source: paper PMC6201103, “The Small-Compound Inhibitor K22 Displays Broad Antiviral Activity against Different Members of the Family Flaviviridae and Offers Potential as a Panviral Inhibitor” (Antimicrobial Agents and Chemotherapy, 2018)
“And” between values parts separate entries of the source, which are not always exact repeats. Equal entries are not always repeated. Where two headings read alike, the source gives them in different places.

Legend:
[1] = test system: ZIKV; experiment: ZIKV infectivity (TCID50 titration of supernatant) and replication (E protein flow cytometry) in K22-treated Vero cells; type: cell-based, Zika virus; conditions: for IC50: Zika virus, Vero cells, MOI 0.1 TCID50/cell
Procedure: (§1) To test the effect of K22 on flavivirus, hepacivirus, and pestivirus infection, 8 × 10^4 Vero cells were seeded in 12-well dishes (flaviviruses), 5 × 10^4 Huh7-Lunet-N-hCD81-FLuc cells were seeded in 12-well dishes (hepacivirus), or 1 × 10^4 BT cells were seeded in 96-well dishes (pestivirus). At 1 day postseeding, cells were treated with different concentrations of K22 (diluted in DMSO at the concentrations indicated below) for 3 to 4 h and preincubated in 5% CO2 at 37°C. Cells were infected with different viruses at a multiplicity of infection (MOI) of 0.1 TCID50/cell for 1 h at 37°C. For HCV infection, cells were infected with JcR-2a or HCV Jc1 for 3 h at 37°C. Afterwards, cells were washed with prewarmed phosphate-buffered saline (PBS) solution, before cell culture medium supplemented with K22 or the DMSO control at each concentration was added, and incubated at 37°C in a 5% CO2 atmosphere. At 24 h and/or 48 h postinfection (p.i.), supernatants and cells were collected for further analysis.
(§2) Flavivirus replication and the cytopathic effect (CPE) were evaluated from collected cells. Cells in suspension were first labeled with the Fixable Aqua dead cell stain kit (Thermo Fisher Scientific, Waltham, MA, USA) for 30 min on ice, followed by washing with cold PBS. […] After washing, anti-mouse IgG2a conjugated with Alexa Fluor 647 (Thermo Fisher Scientific) was added for 15 min, and the cells were acquired on a FACSCanto II flow cytometer (BD Biosciences, Allschwil, Switzerland). FlowJo (v.9.1) software (TreeStar, Inc., Ashland, OR, USA) was used for analysis. Cell debris and doublets were excluded by electronic gating in forward/side scatter plots. Cell culture supernatants were collected at 24 and 48 h p.i., and the flavivirus titers in Vero cells were determined using the immunoperoxidase monolayer assay (IPMA). For that, supernatants 10-fold diluted in cell culture medium supplemented with 2% (vol/vol) FBS were incubated on Vero cells for 72 h at 37°C in a 5% CO2 atmosphere. At that point, cells were fixed in 4% (wt/vol) PFA for 10 min at room temperature, washed, and immunolabeled with anti-flavivirus group antigen antibody 4G2 diluted in 0.3% (wt/vol) saponin in PBS for 30 min at 37°C and then washed and incubated for another 30 min at 37°C with goat anti-mouse IgG conjugated with horseradish peroxidase (Dako), followed by incubation for 10 to 30 min at room temperature with 3-amino-9-ethylcarbazole (AEC) substrate (Sigma-Aldrich).

[2] = test system: JEV; experiment: JEV infectivity (TCID50 titration) and replication in K22-treated Vero cells; type: cell-based, Japanese encephalitis virus; conditions: for IC50: Japanese encephalitis virus, MOI 0.1 TCID50/cell
Procedure: as §1, §2

[3] = test system: YFV; experiment: microbe, parasite or virus in culture; type: cell-based, yellow fever virus; conditions: for IC50: Yellow fever virus, Vero, read-out: IC50, YFV infectivity
[4] = test system: WNV; experiment: WNV infectivity (TCID50 titration) and replication in K22-treated Vero cells; type: cell-based, West Nile virus; conditions: for IC50: West Nile virus, MOI 0.1 TCID50/cell
Procedure: as §1, §2

[5] = test system: USUV; experiment: microbe, parasite or virus in culture; type: cell-based, Usutu virus; conditions: for IC50: Usutu virus, Vero, read-out: IC50, USUV infectivity
[6] = test system: WESSV; experiment: microbe, parasite or virus in culture; type: cell-based, Wesselsbron virus; conditions: for IC50: Wesselsbron virus, Vero, read-out: IC50, WESSV infectivity
[7] = test system: HCV; experiment: HCV replication, JcR-2a Renilla luciferase reporter virus in Huh7-Lunet-N-hCD81-FLuc cells; type: cell-based, hepatitis C virus
[8] = test system: HCV; experiment: HCV infectivity, supernatant transferred onto naive Huh7-Lunet-N-hCD81-FLuc cells, Renilla luciferase; type: cell-based, hepatitis C virus
[9] = MTT cell proliferation assay; type: cell-based; conditions: human, Huh7-Lunet-N-hCD81-FLuc cells, 48 h posttreatment
[10] = test system: Huh7-Lunet-N-hCD81-FLuc cells; experiment: MTT cell proliferation assay; type: cell-based
[11] = test system: BVDV SuwaCp; experiment: BVDV SuwaCp replication, qRT-PCR of viral RNA in BT cells; type: cell-based, bovine viral diarrhea virus
[12] = test system: BVDV SuwaCp; experiment: microbe, parasite or virus in culture; type: cell-based, bovine viral diarrhea virus
[13] = test system: BVDV SuwaNcp; experiment: BVDV SuwaNcp replication, qRT-PCR of viral RNA in BT cells; type: cell-based, bovine viral diarrhea virus
[14] = test system: BVDV SuwaNcp; experiment: microbe, parasite or virus in culture; type: cell-based, bovine viral diarrhea virus
[15] = Proliferation, MultiTox-Fluor multiplex cytotoxicity assay on BT cells; type: cell-based, bovine; conditions: bovine, MultiTox-Fluor assay
Procedure: (§3) To evaluate the effect of K22 on cell viability, proliferation, as well as cytotoxicity, uninfected cells were treated with the compound at the concentrations specified above or with DMSO as a control. To determine the effect of K22 on cell viability, Vero cells were collected and labeled with the Fixable Aqua dead cell stain kit (Thermo Fisher Scientific) for 30 min on ice, before the cells were washed with cold PBS and fixed for flow cytometry analysis. As a positive control for cell death, cells were heated at 65°C for 30 min. The mean fluorescence intensity (MFI) was determined by flow cytometry analysis on a FACSCanto II flow cytometer (BD Bioscience) and evaluated using FlowJo (v.9.1) software. […] The compound was added at the concentrations indicated above, and cytotoxicity was determined at 24 and/or 48 h p.i. by determination of the absorbance at 490 nm using a plate reader (VersaMax [Molecular Devices, Wokingham, UK] or an EnSpire 2300 multilabel reader [PerkinElmer, Schwerzenbach, Switzerland]). Cell proliferation following compound treatment was determined using a MultiTox-Fluor multiplex cytotoxicity assay (catalog number G9200; Promega) according to the manufacturer's recommendations. The readout was performed using a multilabel reader (EnSpire 2300 multilabel reader; PerkinElmer) upon excitation at ∼400 nm and emission at ∼505 nm. […]

[16] = test system: BT cells; experiment: as above; type: cell-based, bovine
Procedure: as §3

[17] = Cytotoxicity, CytoTox 96 nonradioactive cytotoxicity assay on BT cells; type: cell-based, bovine; conditions: bovine, CytoTox 96 assay
Procedure: as §3

[18] = test system: BT cells; experiment: as above; type: cell-based, bovine; conditions: concentrations used for BVDV
Procedure: as §3

[19] = test system: Vero cells; experiment: Cytotoxicity on Vero cells (Fixable Aqua dead cell stain flow cytometry; CytoTox 96 assay); type: cell-based; conditions: concentrations of Fig. 1c, confirmed with commercial kit
Procedure: as §3

[20] = test system: Vero B4 cells; experiment: Proliferation/viability, MultiTox-Fluor multiplex cytotoxicity assay on Vero B4 cells; type: cell-based
Procedure: as §3

[21] = test system: ZIKV; experiment: Direct effect on virus stability: ZIKV preincubated with K22, then titrated; type: cell-based, Zika virus; conditions: 2 h at room temperature, increasing K22 concentrations
Procedure: Shortly, the compound was diluted in DMSO to reach the desired concentrations (0, 5, 10, 20, 30, and 40 μM) and incubated with the cells for 2 h prior to infection, during infection, or after a period of 2, 6, 10, 14, 18, 22, or 24 h. […] Next, the inoculum was discarded, the cells were washed with prewarmed PBS, and culture medium was added to the wells. Additionally, in order to analyze the direct effect of K22 on virus stability, ZIKV in DMEM was incubated for 2 h at room temperature with the different K22 concentrations and titrated in 10-fold serial dilution on Vero cells for measurement of virus infectivity as described above.

[22] = test system: ZIKV; experiment: Time-of-addition assay, ZIKV in Vero B4 cells; type: cell-based, Zika virus; conditions: K22 added pre- or postinfection, supernatant at 24 h p.i.
[23] = test system: ZIKV; experiment: Combination treatment, ZIKV titers (TCID50) in Vero B4 cells; conditions: for combination index (CI): CompuSyn
[24] = test system: ZIKV; experiment: Immunofluorescence analysis of E protein and dsRNA in ZIKV-infected Vero cells; conditions: 30 μM K22, 48 h p.i.
[25] = Bovine viral diarrhea virus isolates and strains, 48 h

O=C(N/C(=C\c1ccccc1)C(=O)N1CCC(O)(c2ccc(Br)cc2)CC1)c1ccccc1 [K22, (Z)-N-{3-[4-(4-bromophenyl)-4-hydroxypiperidin-1-yl]-3-oxo-1-phenylprop-1-en-2-yl} benzamide]
SI (selectivity index), ZIKV ([1]; 24 h p.i.): 35.6
SI (selectivity index), ZIKV ([1]; 48 h p.i.): 39.9
IC50 ([1]; 24 h p.i.): 2.5 µM
IC50 ([1]; 48 h p.i.): 2.1 µM
reduction of ZIKV viral titers ([1]; higher concentrations of K22, Vero cells): up to 4 orders of magnitude
SI (selectivity index), JEV ([2]; 24 h p.i.): 193.9
SI (selectivity index), JEV ([2]; 48 h p.i.): 19.1
IC50 ([2]; 24 h p.i., Vero cells): 0.5 µM
IC50 ([2]; 48 h p.i., Vero cells): 4.4 µM
K22 concentrations reducing JEV replication and infectivity ([2]; dose-dependent, Vero cells): ≥ 5 µM
K22 concentrations reducing YFV replication and infectivity [3]: ≥ 5 µM
SI (selectivity index), YFV [3]: 24.3 and 36.7
IC50 ([3]; 24 h): 3.7 µM
IC50 ([3]; 48 h): 2.3 µM
SI (selectivity index), WNV ([4]; 24 h p.i.): 32.3
SI (selectivity index), WNV ([4]; 48 h p.i.): 10.0
K22 concentrations significantly reducing WNV replication and infectivity ([4]; Vero cells): ≥ 10 µM
IC50 ([4]; 24 h p.i., Vero cells): 2.8 µM
IC50 ([4]; 48 h p.i., Vero cells): 8.4 µM
IC50 ([5]; 24 h): 9 µM
IC50 ([5]; 48 h): ~10 µM
K22 concentrations necessary to significantly inhibit USUV ([5]; Vero cells): ≥ 20 µM
SI (selectivity index), WESSV [6]: 15.2 and 12.5
K22 concentrations necessary to significantly inhibit WESSV ([6]; Vero cells): ≥ 20 µM
IC50 ([6]; 24 h): 5.9 µM
IC50 ([6]; 48 h): 6.8 µM
CC50 relative to IC50 (replication), HCV ([7]; CC50 21.3 μM vs IC50 7.0 μM): 3 fold
IC50 ([7]; Hepatitis C virus, 48 h, read-out: IC50 for replication, HCV): 7 µM
K22 concentrations significantly reducing HCV replication as well as infectivity ([7]; {}): ≥ 20 µM
SI (selectivity index), HCV [8]: 9.7
IC50 ([8]; Hepatitis C virus, 72 h, read-out: IC50 for infectivity, HCV): 2.2 µM
CC50 at 48 h [9]: 21.3 µM
K22 concentrations affecting the cells used for infection [10]: ≥ 20 µM
IC50 [11, 25]: 15.5 µM
K22 concentrations necessary to significantly reduce viral replication of BVDV SuwaCp ([11]; qRT-PCR, BT cells): ≥ 20 µM
SI (selectivity index), BVDV SuwaCp [12]: >24.6
IC50 ([12]; Bovine viral diarrhea virus isolates and strains, read-out: IC50 for infectivity, BVDV SuwaCp): 14.2 µM
IC50 [13, 25]: 34.7 µM
K22 concentrations necessary to significantly reduce viral replication of BVDV SuwaNcp ([13]; qRT-PCR, BT cells): ≥ 40 µM
SI (selectivity index), BVDV SuwaNcp [14]: >16.4
K22 concentration necessary to significantly reduce infectivity of BVDV SuwaNcp ([14]; BT cells): ≥ 40 µM
IC50 ([14]; Bovine viral diarrhea virus isolates and strains, read-out: IC50 for infectivity, BVDV SuwaNcp): 21.4 µM
CC50 [15]: > 350 µM
K22 concentrations affecting cell proliferation [16]: ≥ 30 µM
CC50 [17]: > 1000 µM
cellular toxicity of K22 [18]: no cellular toxicity
cytotoxic effect of K22 [19]: no cytotoxic effect
K22 concentrations that mildly affected cell proliferation [20]: ≥ 30 µM
effect of preincubation of ZIKV with K22 on infectivity [21]: does not affect ZIKV infectivity
antiviral activity by time of addition [22]: displayed antiviral activity when added at several hours postinfection
reduction of ZIKV viral titers ([23]; 5 to 10 μM K22 combined with ≥10 IU IFN-α, 24 h p.i., no further impact on cell proliferation): at least 3 orders of magnitude
combination index (CI) ([23]; K22 10 to 30 μM with 10 IU IFN-α, slight synergism): < 1
combination index (CI) ([23]; K22 and RBV, concentrations causing only partial inhibition, additive effect): about 1
effect of combination on antiviral effect of K22 ([23]; K22 with either 0.1 or 1 μg/ml RBV): did not improve the antiviral effect of K22
viral E protein and dsRNA markers of infection [24]: severely reduced

NC(=O)c1ncn([C@@H]2O[C@H](CO)[C@@H](O)[C@H]2O)n1 [RBV, ribavirin, reference compound]
effect of single treatment on ZIKV viral titers ([23]; 10 μg/ml RBV, 24 h p.i., Vero B4 cells): moderately reduced the viral titers
effect of single treatment on ZIKV viral titers ([23]; 100 μg/ml and 1,000 μg/ml RBV, 24 h p.i., Vero B4 cells): significantly reduced viral titers

IFN-α
effect of IFN-α on cell viability [20]: no effect on cell viability
IFN-α doses effective against ZIKV ([23]; single treatment, 24 h p.i., Vero B4 cells): ≥ 10 IU
